Paper PMC10404626 (The Journal of Biological Chemistry, 2023)
Where two headings read alike, the source gives them in different places.

Legend:
[1] = target: T1, Btbc1 (bovine heart mitochondrial cyt bc1, Complex III) (Bos taurus, UniProt P00157+P13272); conditions: cited from earlier work; for incubation time to reach full inhibitory capacity: classic compounds, typical
[2] = target: T2, Rsbc1 (cyt bc1 from Rhodobacter sphaeroides) (Cereibacter sphaeroides, UniProt Q02761+Q02762); conditions: read-out: half-maximum inhibition (IC50); previous work; cited from earlier work
T2 sequence (Q02761 1-445): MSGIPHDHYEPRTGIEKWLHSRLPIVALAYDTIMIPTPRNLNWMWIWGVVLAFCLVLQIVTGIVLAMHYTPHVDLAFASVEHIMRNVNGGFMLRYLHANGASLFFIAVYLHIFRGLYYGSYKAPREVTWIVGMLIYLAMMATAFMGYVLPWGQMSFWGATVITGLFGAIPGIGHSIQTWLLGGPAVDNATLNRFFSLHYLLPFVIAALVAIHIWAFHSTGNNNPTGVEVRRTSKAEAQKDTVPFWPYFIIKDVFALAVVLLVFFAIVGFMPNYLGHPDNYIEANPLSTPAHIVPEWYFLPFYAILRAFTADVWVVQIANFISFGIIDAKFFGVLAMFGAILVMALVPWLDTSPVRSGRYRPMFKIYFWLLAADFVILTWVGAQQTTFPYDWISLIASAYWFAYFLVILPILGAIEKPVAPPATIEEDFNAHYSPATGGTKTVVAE
T2 sequence (Q02762 1-187): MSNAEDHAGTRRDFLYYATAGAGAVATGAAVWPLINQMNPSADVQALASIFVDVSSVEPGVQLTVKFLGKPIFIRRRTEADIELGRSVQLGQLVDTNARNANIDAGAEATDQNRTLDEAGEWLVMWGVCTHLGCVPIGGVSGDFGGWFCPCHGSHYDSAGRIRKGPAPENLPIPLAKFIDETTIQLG
T2 sequence (Q02760 23-285 partner): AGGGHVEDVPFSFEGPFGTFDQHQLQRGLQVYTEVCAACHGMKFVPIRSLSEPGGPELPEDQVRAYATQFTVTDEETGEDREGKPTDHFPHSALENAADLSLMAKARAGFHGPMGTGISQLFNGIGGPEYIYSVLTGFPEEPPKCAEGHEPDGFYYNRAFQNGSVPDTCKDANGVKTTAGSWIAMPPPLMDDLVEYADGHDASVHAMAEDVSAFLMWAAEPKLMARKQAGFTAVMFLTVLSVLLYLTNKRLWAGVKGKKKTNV

[3] = system: yeast cyt b L275F mutation; conditions: cited from earlier work
[4] = system: P. falciparum cyt b mutant parasites (F264L, A122T, Y268S); conditions: cyt b Y268S mutant parasites of the 106/1 line; cited from earlier work
[5] = system: wild-type P. falciparum-infected erythrocytes; conditions: cited from earlier work
[6] = target: T1, Btbc1 (bovine heart mitochondrial cyt bc1, Complex III); test: Inhibition of bovine heart mitochondrial cyt bc1 activity; assay type: biochemical; conditions: IC50, incubation time 5 minutes; cyt c reduction

SMILES: C[C@@]1(c2ccc(Oc3ccccc3)cc2)OC(=O)N(Nc2ccccc2)C1=O (racemic) [famoxadone]
- IC50 ([1]; read-out: half-maximum inhibition (IC50), previous work): 418 nM
- IC50 [2]: 1.4 nM
- reduction in the IC50 value [3]: 20 fold

SMILES: CCCCCCCCCCCC1=C(O)C(=O)c2scnc2C1=O [UHDBT, 5-n-undecyl-6-hydroxy-4,7-dioxobenzothiazole]
- incubation time to reach full inhibitory capacity [1]: less than 5 min

SMILES: O=C1C(O)=C([C@H]2CC[C@H](c3ccc(Cl)cc3)CC2)C(=O)c2ccccc21 [atovaquone]
- EC50 [4]: > 6760 nM
- IC50 ([5]; P. falciparum wild-type lines): ~13 nM
- EC50 ([5]; wild-type parasites of the 106/1 line): 1.1 nM
- IC50 [6]: 2630 nM

SMILES: CO/C(=C/C(N)=O)[C@H](C)[C@H](/C=C/c1csc(-c2csc([C@@H](C)/C=C/C=C/C(C)C)n2)n1)OC [myxothiazol]
- incubation time to reach full inhibitory capacity [1]: less than 5 min

SMILES: C/C=C(C)/C=C/C=C/[C@H](OC)[C@@H](C)[C@@H](OC)[C@@H](C)CCc1oc2c(O)c(OC)cc(OC)c2c(=O)c1C [stigmatellin]
- incubation time to reach full inhibitory capacity [1]: less than 5 min
- IC50 [6]: 1 nM
